Data reported in BindingDB's records for patent US11957687 (Regeneron Pharmaceuticals, 2024).

Molecular target: T1, 17-beta-hydroxysteroid dehydrogenase 13 (Homo sapiens, UniProt Q7Z5P4)
T1 sequence (Q7Z5P4 whole entry): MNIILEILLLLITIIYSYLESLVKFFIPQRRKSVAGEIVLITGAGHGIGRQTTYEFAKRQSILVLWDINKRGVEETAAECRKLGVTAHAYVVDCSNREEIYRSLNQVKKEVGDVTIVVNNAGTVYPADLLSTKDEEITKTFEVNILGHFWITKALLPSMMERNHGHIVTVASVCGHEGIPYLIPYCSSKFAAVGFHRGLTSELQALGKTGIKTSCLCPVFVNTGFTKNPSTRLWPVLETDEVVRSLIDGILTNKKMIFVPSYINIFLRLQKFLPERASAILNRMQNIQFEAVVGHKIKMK
Test: HSD17B13 Enzymatic Blocking Assay (50nM)
Method: Compounds of the disclosure were screened for their ability to block HSD17B13 function using an enzymatic blocking assay. HSD17B13 activity was quantified using a NADH Glo luminescence assay (Promega, #Cat. No. G9062) to measure the formation of NADH from the oxidation of LTB4, a known HSD17B13 substrate. Compounds were over a 10-point dose curve using an Echo-555 liquid handling dispenser. HSD17B13 (SEQ ID NO: 1, expressed in E. coli) was added at […] a final concentration of 50 nM, depending on the assay run, in a buffer containing 0.2M Tris-HCl pH 7.5 containing 0.01% Triton-X into a low volume white 384-well assay plate. Compounds were incubated with the enzyme for 30 minutes at room temperature. The assay reaction was then initiated by addition of 10 μM LTB4 substrate (Cayman chemicals, Cat. No. 20110) and 500 μM NAD, and the reaction mixture was incubated for 1 or 2 hours at room temperature depending on the assay run. DMSO at a concentration of 0.5% was used as a negative control, and a ‘no substrate’ control was used as a positive control (100% inhibition) in the assay. […] Generation of NADH was detected in the luminescence mode on the Envision Perkin Elmer plate reader. The IC50 values were determined using Dotmatics analysis software.

SMILES | IC50 [nM]
CCCC1Cc2ccc(C)cc2C1NC(=O)c1ccc(C(F)(F)F)[nH]c1=O (configuration not stated) [US11957687, Compound 291] | 80
CC(C)(C)OC(=O)NCCc1cccc2c1CCCC2NC(=O)c1ccc(C(F)(F)F)[nH]c1=O (configuration not stated) [US11957687, Compound 301] | 3450
